Reference: patent US6147078A, “Pyrazinone thrombin inhibitors” (Merck & Co., Inc., priority 1999, dated 2000)

Experiments:
[1] = Metabolite identification in urine of male, bile duct-cannulated rats after intravenous dosing; format: in vivo, rat; details: carbon 14 labeled, intravenous 20 mg/kg in saline, urine collected over 24 hours
Experimental: Purification of 3-(2-Phenethyleneamino)-6-hydroxymethyl-1-(2-methyl-6-amino-3-methylenecarboxamidomethyl)pyrazin-2-one from male, bile duct-cannulated rats.
(§1) Rats were dosed intravenously with carbon 14 labeled [drawing 16] at 20 mg/kg in saline at 1 mL/kg. Bile and urine were collected periodically over 24 hours. Aliquots of these were analyzed for total radioactivity. Urine was also fractionated by HPLC using Zorbax XDB-C8 column eluted with 0.1% trifluoroacetic acid-water and acetonitrile gradient, and the fractions analyzed by mass spectrometry.

thrombin = assay: Bioassay of HPLC urine fractions for inhibitory effect on thrombin activity; format: biochemical; details: urine HPLC fraction from rats, evaporated to dryness
Experimental: as §1
In another procedure, the urine was fractionated by HPLC. An aliquot of the fractions was assayed for total radioactivity, and the remaining volume was evaporated to dryness, under nitrogen, and bioassayed for inhibitory effect on the thrombin activity.

SMILES | metabolite in urine (site of hydroxylation) [1] | inhibitory effect on the thrombin activity (thrombin)
Cc1nc(N)ccc1CNC(=O)Cn1c(C)cnc(NCCc2ccccc2)c1=O | hydroxylation on the methylpyrazinone moiety | 
Cc1nc(N)ccc1CNC(=O)Cn1c(CO)cnc(NCCc2ccccc2)c1=O [6-HYDROXYMETHYL-3-(2-PHENETHYLAMINO )-1-(2-AMINO-6-METHYL-5-METHYLCARBOXAMIDOMETHYLPYRIDINYL)-PYRAZINONE] |  | significant inhibitory activity
